US20250206724A1, “SUBSTITUTED 3-AMINO INDAZOLE DERIVATIVES AS KINASE INHIBITORS” (NERVIANO MEDICAL SCIENCES S.R.L., priority 2022, published 2025)
Structures can show the parent of a compound that is named as a salt.

Each compound was assayed against T1, CDK11A (Homo sapiens, UniProt Q9UQ88). Settings: displacement of SNS-032-Atto590 probe (0.002 μM) from CDK11A-p58 (0.032 uM), fluorescence polarization.
T1 sequence (Q9UQ88 346-783): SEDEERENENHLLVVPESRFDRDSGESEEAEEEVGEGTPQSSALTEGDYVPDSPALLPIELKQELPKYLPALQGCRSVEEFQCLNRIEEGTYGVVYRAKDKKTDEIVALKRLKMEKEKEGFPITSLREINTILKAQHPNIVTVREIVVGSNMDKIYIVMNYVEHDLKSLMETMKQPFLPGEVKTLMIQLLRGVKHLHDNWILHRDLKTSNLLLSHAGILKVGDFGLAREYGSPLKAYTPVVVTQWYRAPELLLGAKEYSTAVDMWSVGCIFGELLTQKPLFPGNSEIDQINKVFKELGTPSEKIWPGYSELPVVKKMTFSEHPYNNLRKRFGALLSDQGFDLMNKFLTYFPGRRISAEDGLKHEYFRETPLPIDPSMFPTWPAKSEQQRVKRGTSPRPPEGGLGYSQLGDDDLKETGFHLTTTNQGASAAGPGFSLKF
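Further: compound preincubated 30 min with CDK11A-p58, then probe added and polarization (mP) read 15 min later, 0% displacement is probe plus enzyme, 100% is probe alone.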
Protocol: Biochemical Kinase Inhibition Assay on CDK11 in Displacement Assay Format
Displacement Assay Format
Fluorescence Polarization (FP) experiments were carried out at room temperature using no-binding black 384-well microplates (Corning, NY), in 50 mM Tris HCl, pH 8, 10 mM MgCl2, 1 mM DTT, 1 mM CHAPS in a final volume of 60 μl. The plate reader was the Pherastar microplate reader (BMG). Polarization values were read using excitation and emission wavelengths of 590 and 675 nm, respectively. All FP values are expressed as mP units.
Compounds were 4-folds serially diluted in 100% DMSO and added directly to the CDK11A-p58 solution using the pin tool (V & P Scientific): 0.2 ul of the different compound concentrations in 20 ul of enzyme solution. After an incubation of 30 minutes at r.t., 40 ul of probe solution were added. […] The Pherastar reading is performed after 15 minutes of all components incubation. For each assay, high controls (equivalent to 0% displacement) contain probe, CDK11A-p58, and 0.33% DMSO, whereas low controls (equivalent to 100% displacement) contain only probe and 0.33% DMSO. Controls are used for the Z′ and signal to background evaluation.
The data per each molecule are analyzed by Prism SW or an internally customized version of the SW package “Assay Explorer” which provides sigmoidal fittings of the ten-dilution curves for DC50 determination using a 4 parameters logistic equation:
where x is the logarithm of the inhibitor concentration, y is the response; y starts at bottom and goes to top with a sigmoid shape.

Going from `N#Cc1ccc(Cl)c(-c2ccc3[nH]nc(NC(=O)C4CC(NC5CCCC5)C4)c3c2)c1` (stereo not drawn) [compound 154, N-[5-(2-Chloro-5-cyanophenyl)-1H-indazol-3-yl]-3-(cyclopentylamino)cyclobutanecarboxamide hydrochloride] to `CC(C)N1CCC(C(=O)Nc2n[nH]c3ccc(-c4cc(C#N)ccc4Cl)cc23)CC1` [compound 143, N-[5-(2-Chloro-5-cyanophenyl)-1H-indazol-3-yl]-1-(propan-2-yl)piperidine-4-carboxamide hydrochloride], the DC50 rises from 40 nM to 89 nM (2.2-fold).

First: O=C(Nc1n[nH]c2ccc(-c3cc(Cl)ccc3C(F)(F)F)cc12)C1CCCNC1 (stereo not drawn) [cpd 15, N-{5-[5-Chloro-2-(trifluoromethyl)phenyl]-1H-indazol-3-yl}piperidine-3-carboxamide trifluoroacetate]
Second: Cc1ccc(-c2ccc3[nH]nc(NC(=O)[C@@H]4CCCNC4)c3c2)c(C(F)(F)F)c1 [cpd 36, (3R)-N-{5-[4-Methyl-2-(trifluoromethyl)phenyl]-1H-indazol-3-yl}piperidine-3-carboxamide hydrochloride]
The DC50 of the first is 2-fold higher: 130 nM for the first, 65 nM for the second.

`CCc1ccccc1-c1ccc2[nH]nc(NC(=O)C3CCN(C)CC3)c2c1` [cpd 88, N-[5-(2-Ethylphenyl)-1H-indazol-3-yl]-1-methylpiperidine-4-carboxamide hydrochloride] and `Cc1ccc(-c2ccc3[nH]nc(NC(=O)C4CCN(C)CC4)c3c2)c(F)c1` [cpd 119, N-[5-(2-Fluoro-4-methylphenyl)-1H-indazol-3-yl]-1-methylpiperidine-4-carboxamide hydrochloride] are within 1.5-fold of each other in DC50: 822 nM for the first, 665 nM for the second.

Going from `NCCCN1CCC(C(=O)Nc2n[nH]c3ccc(-c4c(F)cccc4Cl)cc23)CC1` [cpd 66, 1-(3-Aminopropyl)-N-[5-(2-chloro-6-fluorophenyl)-1H-indazol-3-yl]piperidine-4-carboxamide dihydrochloride] to `CCCCN1CCC(C(=O)Nc2n[nH]c3ccc(-c4c(F)cccc4Cl)cc23)CC1` [cpd 65, 1-Butyl-N-[5-(2-chloro-6-fluorophenyl)-1H-indazol-3-yl]piperidine-4-carboxamide hydrochloride], the DC50 rises from 58 nM to 110 nM (1.9-fold).

Going from `CN1CCC(C(=O)Nc2n[nH]c3ccc(-c4cc([N+](=O)[O-])ccc4Cl)cc23)CC1` [compound 137, N-[5-(2-Chloro-5-nitrophenyl)-1H-indazol-3-yl]-1-methylpiperidine-4-carboxamide trifluoroacetate] to `CN1CCC(C(=O)Nc2n[nH]c3ccc(-c4cc([N+](=O)[O-])ccc4F)cc23)CC1` [cpd 115, N-[5-(2-Fluoro-5-nitrophenyl)-1H-indazol-3-yl]-1-methylpiperidine-4-carboxamide hydrochloride], the DC50 rises from 70 nM to 165 nM (2.4-fold).

Compared with `CC(OC(=O)C(C)C)OC(=O)N1CCC[C@@H](C(=O)Nc2n[nH]c3ccc(-c4cc(C#N)ccc4Cl)cc23)C1` (stereo partly drawn) [compound 190, 1-[(2-Methylpropanoyl)oxy]ethyl (3R)-3-{[5-(2-chloro-5-cyanophenyl)-1H-indazol-3-yl]carbamoyl}piperidine-1-carboxylate], `CCC(=O)c1ccc(Cl)c(-c2ccc3[nH]nc(NC(=O)[C@@H]4CCCNC4)c3c2)c1` [cpd 43, (3R)-N-[5-(2-Chloro-5-propanoylphenyl)-1H-indazol-3-yl]piperidine-3-carboxamide hydrochloride] is 37-fold lower in DC50: 706 nM for the first, 19 nM for the second.

Compared with `C[C@H]1CC[C@@H](C(=O)Nc2n[nH]c3ccc(-c4c(Cl)cccc4Cl)cc23)CN1` [compound 177, (3R,6S)-N-[5-(2,6-Dichlorophenyl)-1H-indazol-3-yl]-6-methylpiperidine-3-carboxamide trifluoroacetate], `O=C(Nc1n[nH]c2ccc(-c3c(Cl)cccc3Cl)cc12)[C@H]1CCCNC1` [compound 170, (3S)-N-[5-(2,6-Dichlorophenyl)-1H-indazol-3-yl]piperidine-3-carboxamide hydrochloride] is 3.3-fold higher in DC50: 54 nM for the first, 177 nM for the second.

Compared with `O=C(Nc1n[nH]c2ccc(-c3c(F)cccc3Cl)cc12)[C@@H]1CCCNC1` [compound 172, (3R)-N-[5-(2-Chloro-6-fluorophenyl)-1H-indazol-3-yl]piperidine-3-carboxamide hydrochloride], `CC(=O)c1ccc(F)c(-c2ccc3[nH]nc(NC(=O)C4CCCNC4)c3c2)c1` (stereo not drawn) [cpd 16, N-[5-(5-Acetyl-2-fluorophenyl)-1H-indazol-3-yl]piperidine-3-carboxamide hydrochloride] is 1.7-fold higher in DC50: 42 nM for the first, 72 nM for the second.

`CN1CCC(C(=O)Nc2n[nH]c3ccc(-c4ccc(N)cc4)cc23)CC1` [cpd 90, N-[5-(4-Aminophenyl)-1H-indazol-3-yl]-1-methylpiperidine-4-carboxamide dihydrochloride] and `CN1CCC(C(=O)Nc2n[nH]c3ccc(-c4cccc(F)c4)cc23)CC1` [cpd 101, N-[5-(3-Fluorophenyl)-1H-indazol-3-yl]-1-methylpiperidine-4-carboxamide hydrochloride] are within 1.5-fold of each other in DC50: 592 nM for the first, 692 nM for the second.

Compared with `CC(C)(C)COC(=O)n1nc(NC(=O)[C@@H]2CCC(C)(C)NC2)c2cc(-c3cc(C#N)ccc3Cl)ccc21` (single isomer, unassigned) [cpd 224, 2,2-Dimethylpropyl 5-(2-chloro-5-cyanophenyl)-3-({[(3+)-6,6-dimethylpiperidin-3-yl]carbonyl}amino)-1H-indazole-1-carboxylate hydrochloride], `CN1CCC(C(=O)Nc2n[nH]c3ccc(-c4cc(C(N)=O)ccc4Cl)cc23)CC1` [cpd 117, N-[5-(5-Carbamoyl-2-chlorophenyl)-1H-indazol-3-yl]-1-methylpiperidine-4-carboxamide trifluoroacetate] is 3.5-fold lower in DC50: 528 nM for the first, 153 nM for the second.

First: CN1CCC(C(=O)Nc2n[nH]c3ccc(-c4c(F)cc(F)cc4F)cc23)CC1 [compound 123, 1-Methyl-N-[5-(2,4,6-trifluorophenyl)-1H-indazol-3-yl]piperidine-4-carboxamide hydrochloride]
Second: CN1CCC(C(=O)Nc2n[nH]c3ccc(-c4c(F)cccc4F)cc23)CC1 [cpd 105, N-[5-(2,6-Difluorophenyl)-1H-indazol-3-yl]-1-methylpiperidine-4-carboxamide hydrochloride]
The DC50 of the first is 1.8-fold higher: 665 nM for the first, 364 nM for the second.

First: CN1CCC(C(=O)Nc2n[nH]c3ccc(-c4cc(F)ccc4C#N)cc23)CC1 [compound 136, N-[5-(2-Cyano-5-fluorophenyl)-1H-indazol-3-yl]-1-methylpiperidine-4-carboxamide hydrochloride]
Second: CN1CCC(C(=O)Nc2n[nH]c3ccc(-c4ccc(O)c(C#N)c4)cc23)CC1 [compound 135, N-[5-(3-Cyano-4-hydroxyphenyl)-1H-indazol-3-yl]-1-methylpiperidine-4-carboxamide hydrochloride]
The DC50 of the first is 1.6-fold lower: 486 nM for the first, 786 nM for the second.

Compared with `COC(=O)c1ccc(C#N)c(-c2ccc3[nH]nc(NC(=O)[C@@H]4CCCNC4)c3c2)c1` [cpd 40, Methyl 4-cyano-3-(3-{[(3R)-piperidin-3-ylcarbonyl]amino}-1H-indazol-5-yl)benzoate hydrochloride], `CNC(=O)c1ccc(C#N)c(-c2ccc3[nH]nc(NC(=O)[C@@H]4CCCNC4)c3c2)c1` [cpd 55, (3R)-N-{5-[2-Cyano-5-(methylcarbamoyl)phenyl]-1H-indazol-3-yl}piperidine-3-carboxamide hydrochloride] is 2-fold higher in DC50: 45 nM for the first, 90 nM for the second.

`O=C(Nc1n[nH]c2ccc(-c3cc(OC(F)(F)F)ccc3F)cc12)[C@@H]1CCCNC1` [cpd 23, (3R)-N-{5-[2-Fluoro-5-(trifluoromethoxy)phenyl]-1H-indazol-3-yl}piperidine-3-carboxamide hydrochloride] showed a DC50 of 75 nM.
